Measured values taken from publication PMC10099595, “Multimodal 4-arylchromene derivatives with microtubule-destabilizing, anti-angiogenic, and MYB-inhibitory activities” (Cancer Drug Resistance, 2023).

Key:
[1] = test system: EA.hy926 endothelial hybrid cells; conditions: positive control; ref Köhler et al.[20]; cited from earlier work
[2] = test system: 518A2 melanoma cells; conditions: positive control; ref Köhler et al.[20]; cited from earlier work
[3] = test system: HCT-116 colon carcinoma cells; conditions: positive control; ref Köhler et al.[20]; cited from earlier work
[4] = test system: HCT-116 p53-/- colon carcinoma cells; conditions: positive control; ref Köhler et al.[20]; cited from earlier work
[5] = test system: U-87 glioblastoma cells; conditions: positive control; ref Köhler et al.[20]; read-out: IC50 U87; cited from earlier work
[6] = test system: HT-29 colon carcinoma cells; conditions: positive control; ref Köhler et al.[20]; cited from earlier work
[7] = test system: KB-V1^Vbl cervix carcinoma cells; conditions: without verapamil; ref Köhler et al.[20]; cited from earlier work
[8] = test system: HeLa cervix carcinoma cells; parameters: method as in Köhler et al.[20]; conditions: positive control; ref Köhler et al.[20]; cited from earlier work
[9] = test system: MCF-7 breast carcinoma cells; conditions: positive control; ref Köhler et al.[20]; cited from earlier work
[10] = test system: HDFa adult human dermal fibroblasts; parameters: method as in Köhler et al.[20]; conditions: non-malignant cells; ref Köhler et al.[20]; cited from earlier work
[11] = test system: tested cancer and hybrid cell lines; experiment: MTT assay, average over all tested cancer and hybrid cell lines
Experimental: An 3-(4, 5-dimethylthiazol-2-yl)-2, 5-diphenyl tetrazolium bromid (MTT) assay was used for antiproliferative studies. Cancer cells (5 × 10^4 cells/mL, 100 μL/well) were placed in 96-well plates (10 × 10^4 cells/mL for HDFA and U87 cells), and the cells were incubated for 24 h at 5% CO2 and 95% humidity. Then, cells were treated with test compounds (at various concentrations) or solely with DMSO as a negative control for 72 h. Then, 12.5 μL of a 0.5% MTT solution in phosphate-buffered saline (PBS) was added to the cells, followed by incubation for 2 h at 37 °C. After centrifugation of the plates (300 × g, 5 min, 4 °C), the medium was discarded, and 25 μL of DMSO containing 10% SDS and 0.6% acetic acid was added, followed by incubation at 37 °C for at least 1 h. Formazan absorbance at λ = 570 nm was measured using a Tecan infinite F200 microplate reader and corrected for the background (λ = 630 nm). The 50% inhibitory concentration (IC50) values were calculated from dose-response curves (means ± SD, four independent experiments) compared to DMSO-treated control cells, which were set to 100%. GraphPad Prism 9 was used for curve-fitting.
The selectivity index (SI) was calculated as a measure of selectivity toward cancer cells compared to non-malignant cells.

In the case of `N#CC1=C(N)Oc2c(ccc3ccccc23)C1c1cccc([N+](=O)[O-])c1` (stereo not drawn) [1A, 2-amino-4-(3-nitrophenyl)-4H-naphtho(1,2-b)pyran-3-carbonitrile], the IC50 [1] is listed as 30 ± 1 nM, the IC50 [2] is listed as 10 ± 1 nM and the IC50 [3] is listed as 8 ± 0.7 nM. For the same compound, the IC50 [4] was 30 ± 3 nM, the IC50 [5] was 70 ± 9 nM and the IC50 [6] was 30 ± 3 nM. The IC50 [7] was 20 ± 2 nM, the IC50 [8] was 40 ± 2 nM and the IC50 [9] was 200 ± 20 nM. For the same compound, the IC50 [10] was 40700 nM, the IC50 ([11]; Homo sapiens, read-out: Average IC50 value of the tested cancer and hybrid cell lines (Ø IC50), average of all cell lines of Table 2) was 52 nM and the “SI (IC50 HDFa cells/IC50 tumor cell average)” value ([11]; selectivity index, HDFa vs tumor cell average) was 786.
